Reference: PubChem BioAssay (NCI)
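Values below derive from 48-hour exposures of cells grown in 96-well plates, with endpoints linearly interpolated between the two concentrations bracketing the appropriate inhibition level. TGI denotes the concentration required for complete inhibition of growth.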

Experiments:
Experiment in all cases: growth of human tumour cells (NCI), 48 h
TK-10 renal = test system: TK-10 renal
HCT-116 colon = test system: HCT-116 colon
HOP-62 NSCLC = test system: HOP-62 NSCLC
UACC-62 melanoma = test system: UACC-62 melanoma
MDA-MB-435 = test system: MDA-MB-435
SK-OV-3 ovarian = test system: SK-OV-3 ovarian
HCT-15 colon = test system: HCT-15 colon
NCI-H23 lung = test system: NCI-H23 lung
SK-MEL-5 melanoma = test system: SK-MEL-5 melanoma
COLO 205 colon = test system: COLO 205 colon
RPMI-8226 leukemia = test system: RPMI-8226 leukemia
MOLT-4 leukemia = test system: MOLT-4 leukemia
NCI-H522 lung = test system: NCI-H522 lung
KM12 colon = test system: KM12 colon
SK-MEL-2 melanoma = test system: SK-MEL-2 melanoma
SR leukemia = test system: SR leukemia
CCRF-CEM leukemia = test system: CCRF-CEM leukemia
SF-539 CNS = test system: SF-539 CNS
EKVX NSCLC = test system: EKVX NSCLC
OVCAR-8 ovarian = test system: OVCAR-8 ovarian
NCI-H460 lung = test system: NCI-H460 lung
OVCAR-3 ovarian = test system: OVCAR-3 ovarian
DU-145 prostate = test system: DU-145 prostate
SN12C renal = test system: SN12C renal
CAKI-1 renal = test system: CAKI-1 renal
SW-620 colon = test system: SW-620 colon
MALME-3M melanoma = test system: MALME-3M melanoma
SK-MEL-28 melanoma = test system: SK-MEL-28 melanoma
U251 CNS = test system: U251 CNS
HCC-2998 colon = test system: HCC-2998 colon
HT29 colon = test system: HT29 colon
HS 578T breast = test system: HS 578T breast
NCI-H226 lung = test system: NCI-H226 lung
OVCAR-5 ovarian = test system: OVCAR-5 ovarian
LOX IMVI melanoma = test system: LOX IMVI melanoma
OVCAR-4 ovarian = test system: OVCAR-4 ovarian
MDA-N = test system: MDA-N
A498 renal = test system: A498 renal
UO-31 renal = test system: UO-31 renal
PC-3 prostate = test system: PC-3 prostate
SF-268 CNS = test system: SF-268 CNS
UACC-257 melanoma = test system: UACC-257 melanoma
T-47D breast = test system: T-47D breast
SF-295 CNS = test system: SF-295 CNS
MDA-MB-231 breast = test system: MDA-MB-231 breast
K-562 leukemia = test system: K-562 leukemia
786-0 renal = test system: 786-0 renal
HOP-92 NSCLC = test system: HOP-92 NSCLC
SNB-75 CNS = test system: SNB-75 CNS
MCF7 breast = test system: MCF7 breast
ACHN renal = test system: ACHN renal
NCI/ADR-RES ovarian = test system: NCI/ADR-RES ovarian
SNB-19 CNS = test system: SNB-19 CNS
A549 NSCLC = test system: A549 NSCLC
BT-549 breast = test system: BT-549 breast
RXF 393 renal = test system: RXF 393 renal
M14 melanoma = test system: M14 melanoma
IGROV1 ovarian = test system: IGROV1 ovarian
HL-60(TB) leukemia = test system: HL-60(TB) leukemia

Compound: CN(C)/C=N/S(=O)(=O)c1nn2c(C=O)c(-c3ccccc3)nc2s1
- TGI (TK-10 renal): > 77.1 µM
- TGI (HCT-116 colon): 13.1 µM
- TGI (HOP-62 NSCLC): > 100 µM
- TGI (UACC-62 melanoma): 54.4 µM
- TGI (MDA-MB-435): > 100 µM
- TGI (SK-OV-3 ovarian): > 100 µM
- TGI (HCT-15 colon): 45.6 µM
- TGI (NCI-H23 lung): > 83 µM
- TGI (SK-MEL-5 melanoma): 27.9 µM
- TGI (COLO 205 colon): > 38.6 µM
- TGI (RPMI-8226 leukemia): 42.9 µM
- TGI (MOLT-4 leukemia): 32.1 µM
- TGI (NCI-H522 lung): 15.8 µM
- TGI (KM12 colon): > 79.7 µM
- TGI (SK-MEL-2 melanoma): > 100 µM
- TGI (SR leukemia): 21.3 µM
- TGI (CCRF-CEM leukemia): 9.8 µM
- TGI (SF-539 CNS): > 100 µM
- TGI (EKVX NSCLC): > 100 µM
- TGI (OVCAR-8 ovarian): > 53.4 µM
- TGI (NCI-H460 lung): > 51.4 µM
- TGI (OVCAR-3 ovarian): 24.1 µM
- TGI (DU-145 prostate): > 100 µM
- TGI (SN12C renal): 49.7 µM
- TGI (CAKI-1 renal): 8.68 µM
- TGI (SW-620 colon): 20.2 µM
- TGI (MALME-3M melanoma): 35.6 µM
- TGI (SK-MEL-28 melanoma): 29.8 µM
- TGI (U251 CNS): > 31.6 µM
- TGI (HCC-2998 colon): > 56.5 µM
- TGI (HT29 colon): 4.58 µM
- TGI (HS 578T breast): > 100 µM
- TGI (NCI-H226 lung): > 57.4 µM
- TGI (OVCAR-5 ovarian): > 100 µM
- TGI (LOX IMVI melanoma): > 89 µM
- TGI (OVCAR-4 ovarian): > 89.9 µM
- TGI (MDA-N): 52.5 µM
- TGI (A498 renal): > 100 µM
- TGI (UO-31 renal): 19.5 µM
- TGI (PC-3 prostate): > 89 µM
- TGI (SF-268 CNS): > 100 µM
- TGI (UACC-257 melanoma): > 63.3 µM
- TGI (T-47D breast): 61.4 µM
- TGI (SF-295 CNS): > 100 µM
- TGI (MDA-MB-231 breast): > 74.9 µM
- TGI (K-562 leukemia): > 61.7 µM
- TGI (786-0 renal): 21.3 µM
- TGI (HOP-92 NSCLC): > 100 µM
- TGI (SNB-75 CNS): > 100 µM
- TGI (MCF7 breast): > 100 µM
- TGI (ACHN renal): 21.1 µM
- TGI (NCI/ADR-RES ovarian): > 76.6 µM
- TGI (SNB-19 CNS): > 100 µM
- TGI (A549 NSCLC): > 82.4 µM
- TGI (BT-549 breast): > 26.4 µM
- TGI (RXF 393 renal): 49 µM
- TGI (M14 melanoma): 14.8 µM

Compound: c1ccc(COC2NCCN2Cc2ccccc2)cc1 (stereo not given)
- TGI (TK-10 renal): > 100 µM
- TGI (HCT-116 colon): > 100 µM
- TGI (HOP-62 NSCLC): > 100 µM
- TGI (UACC-62 melanoma): > 100 µM
- TGI (MDA-MB-435): > 100 µM
- TGI (SK-OV-3 ovarian): > 100 µM
- TGI (HCT-15 colon): > 100 µM
- TGI (NCI-H23 lung): > 100 µM
- TGI (SK-MEL-5 melanoma): > 100 µM
- TGI (COLO 205 colon): > 100 µM
- TGI (RPMI-8226 leukemia): > 100 µM
- TGI (MOLT-4 leukemia): > 100 µM
- TGI (NCI-H522 lung): > 100 µM
- TGI (KM12 colon): > 100 µM
- TGI (SK-MEL-2 melanoma): > 100 µM
- TGI (SR leukemia): > 100 µM
- TGI (CCRF-CEM leukemia): > 100 µM
- TGI (SF-539 CNS): > 100 µM
- TGI (EKVX NSCLC): > 100 µM
- TGI (OVCAR-8 ovarian): > 100 µM
- TGI (NCI-H460 lung): > 100 µM
- TGI (OVCAR-3 ovarian): > 100 µM
- TGI (DU-145 prostate): > 100 µM
- TGI (SN12C renal): > 100 µM
- TGI (CAKI-1 renal): > 100 µM
- TGI (SW-620 colon): > 100 µM
- TGI (MALME-3M melanoma): > 100 µM
- TGI (SK-MEL-28 melanoma): > 100 µM
- TGI (U251 CNS): > 100 µM
- TGI (HT29 colon): > 100 µM
- TGI (HS 578T breast): > 100 µM
- TGI (NCI-H226 lung): > 100 µM
- TGI (OVCAR-5 ovarian): > 100 µM
- TGI (LOX IMVI melanoma): > 100 µM
- TGI (IGROV1 ovarian): > 100 µM
- TGI (OVCAR-4 ovarian): > 100 µM
- TGI (MDA-N): > 100 µM
- TGI (HL-60(TB) leukemia): > 100 µM
- TGI (A498 renal): > 100 µM
- TGI (UO-31 renal): > 100 µM
- TGI (PC-3 prostate): > 100 µM
- TGI (SF-268 CNS): > 100 µM
- TGI (UACC-257 melanoma): > 100 µM
- TGI (T-47D breast): > 100 µM
- TGI (SF-295 CNS): > 100 µM
- TGI (MDA-MB-231 breast): > 100 µM
- TGI (K-562 leukemia): > 100 µM
- TGI (786-0 renal): > 100 µM
- TGI (HOP-92 NSCLC): > 100 µM
- TGI (SNB-75 CNS): > 100 µM
- TGI (MCF7 breast): > 100 µM
- TGI (ACHN renal): > 100 µM
- TGI (NCI/ADR-RES ovarian): > 100 µM
- TGI (SNB-19 CNS): > 100 µM
- TGI (A549 NSCLC): > 100 µM
- TGI (BT-549 breast): > 100 µM
- TGI (RXF 393 renal): > 100 µM
- TGI (M14 melanoma): > 100 µM
